For data set [1] the following is noted: relative to (S)-(+)-pregabalin, type of activity not specified, cited from earlier work.
Data set [2] can be described thus: hygroscopicity of anhydrous pregabalin. In kind it is physicochemical. The conditions noted are these: moisture content less than about 0.3% w/w.
The nature of data set [3]: accelerated stability testing. The settings on record: anhydrous pregabalin, moisture content less than about 0.3% w/w.

Like-named read-outs stand apart in the source and are kept apart here.

The text below walks through data of US20060270871A1, “P[…] I OF […] PROCESSES FOR ITS PREPARATION” (priority 2005, published 2006).

Turning to `CC(C)C[C@@H](CN)CC(=O)O` (single isomer, unassigned) [(R)-(−)-enantiomer of pregabalin], the “times less active when compared with the (S)-(+)-enantiomer” value in data set [1] is reported as “about 40 times”; in data set [1] (listed as (R)-(−)-enantiomer), 40 times.

As to `CC(C)CC(CN)CC(=O)O` (stereo in doubt) [anhydrous pregabalin, (S)-(+)-3-aminomethyl-5-methyl-1-hexanoic acid], in data set [2], the hygroscopicity entry was “non-hygroscopic”. Besides, the “stability during the accelerated stability testing” value in data set [3] is on record as “stable”.
